# Measured values as given in PubChem BioAssay AID2060354 (Molecular Pharmacology Branch, DTP, NCI, 2025).
# System: 519858-162-T-J1-PDC spheroid growth inhibition
# Assay: Anticancer human tumor 519858-162-T-J1-PDC patient-derived colon adenocarcinoma cell line growth inhibition [TAK]
# Conditions: spheroids with HUVEC and MSC; for IC50: curve of first compound; for viability, T/C: stronger effect = lower value
# Method in brief: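 Drug combinations, each paired with TAK-243 or ipatasertib, were tested on multi-cell spheroids of 60% malignant cells, 25% HUVEC and 15% hMSC. Top concentrations were at or near the clinical Cmax (10 microM if undetermined), decreasing by half-log; viability is given as % test/control.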
# [1] = second compound 0.3 µM, first compound 0.000316 µM
# [2] = second compound 0.3 µM, first compound 0.001 µM
# [3] = second compound 0.3 µM, first compound 0.00316 µM
# [4] = second compound 0.3 µM, first compound 0.01 µM
# [5] = second compound 0.949 µM, first compound 0.000316 µM
# [6] = second compound 0.949 µM, first compound 0.001 µM
# [7] = second compound 0.949 µM, first compound 0.00316 µM
# [8] = second compound 0.949 µM, first compound 0.01 µM
# [9] = second compound 3 µM, first compound 0.000316 µM
# [10] = second compound 3 µM, first compound 0.001 µM
# [11] = second compound 3 µM, first compound 0.00316 µM
# [12] = second compound 3 µM, first compound 0.01 µM
# [13] = second compound 9.49 µM, first compound 0.000316 µM
# [14] = second compound 9.49 µM, first compound 0.001 µM
# [15] = second compound 9.49 µM, first compound 0.00316 µM
# [16] = second compound 9.49 µM, first compound 0.01 µM
# [17] = second compound 30 µM, first compound 0.000316 µM
# [18] = second compound 30 µM, first compound 0.001 µM
# [19] = second compound 30 µM, first compound 0.00316 µM
# [20] = second compound 30 µM, first compound 0.01 µM
# 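Also: spheroids exposed to drugs for 7 days.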
structure (smiles),measurement,setting,value
CC(=O)Nc1cccc(-n2c(=O)n(C3CC3)c(=O)c3c(Nc4ccc(I)cc4F)n(C)c(=O)c(C)c32)c1 + CC(C)NCC(C(=O)N1CCN(c2ncnc3c2C(C)CC3O)CC1)c1ccc(Cl)cc1,IC50,second compound 0.3 µM,5.63 nM
same,IC50,second compound 0.949 µM,5.24 nM
same,IC50,second compound 3 µM,5.89 nM
same,IC50,second compound 9.49 µM,6.24 nM
same,IC50,second compound 30 µM,9.07 nM
same,"viability, T/C","second compound 0.3 µM, first compound 94.9 pM",78.5%
same,"viability, T/C","second compound 0.3 µM, first compound 0.0003 µM",87.2%
same,"viability, T/C","second compound 0.3 µM, first compound 0.000949 µM",72%
same,"viability, T/C","second compound 0.3 µM, first compound 0.003 µM",62.6%
same,"viability, T/C","second compound 0.3 µM, first compound 0.00949 µM",40.1%
same,"viability, T/C","second compound 0.3 µM, first compound 0.03 µM",18.1%
same,"viability, T/C","second compound 0.949 µM, first compound 94.9 pM",99.8%
same,"viability, T/C","second compound 0.949 µM, first compound 0.0003 µM",107%
same,"viability, T/C","second compound 0.949 µM, first compound 0.000949 µM",69%
same,"viability, T/C","second compound 0.949 µM, first compound 0.003 µM",66.1%
same,"viability, T/C","second compound 0.949 µM, first compound 0.00949 µM",37.8%
same,"viability, T/C","second compound 0.949 µM, first compound 0.03 µM",18.4%
same,"viability, T/C","second compound 3 µM, first compound 94.9 pM",82.7%
same,"viability, T/C","second compound 3 µM, first compound 0.0003 µM",97.7%
same,"viability, T/C","second compound 3 µM, first compound 0.000949 µM",86.2%
same,"viability, T/C","second compound 3 µM, first compound 0.003 µM",65.6%
same,"viability, T/C","second compound 3 µM, first compound 0.00949 µM",39.5%
same,"viability, T/C","second compound 3 µM, first compound 0.03 µM",26.5%
same,"viability, T/C","second compound 9.49 µM, first compound 94.9 pM",70.6%
same,"viability, T/C","second compound 9.49 µM, first compound 0.0003 µM",78.9%
same,"viability, T/C","second compound 9.49 µM, first compound 0.000949 µM",73.2%
same,"viability, T/C","second compound 9.49 µM, first compound 0.003 µM",62.7%
same,"viability, T/C","second compound 9.49 µM, first compound 0.00949 µM",42.5%
same,"viability, T/C","second compound 9.49 µM, first compound 0.03 µM",18.2%
same,"viability, T/C","second compound 30 µM, first compound 94.9 pM",109%
same,"viability, T/C","second compound 30 µM, first compound 0.0003 µM",77.6%
same,"viability, T/C","second compound 30 µM, first compound 0.000949 µM",95.4%
same,"viability, T/C","second compound 30 µM, first compound 0.003 µM",68.5%
same,"viability, T/C","second compound 30 µM, first compound 0.00949 µM",48.3%
same,"viability, T/C","second compound 30 µM, first compound 0.03 µM",21.8%
CC(C)CC(NC(=O)C(Cc1ccccc1)NC(=O)c1cnccn1)B(O)O (stereo not given) + CC(C)NCC(C(=O)N1CCN(c2ncnc3c2C(C)CC3O)CC1)c1ccc(Cl)cc1,IC50,second compound 0.3 µM,> 10 nM
same,IC50,second compound 0.949 µM,> 10 nM
same,IC50,second compound 3 µM,> 10 nM
same,IC50,second compound 9.49 µM,> 10 nM
same,IC50,second compound 30 µM,> 10 nM
same,"viability, T/C","second compound 0.3 µM, first compound 31.6 pM",84.6%
same,"viability, T/C","second compound 0.3 µM, first compound 0.0001 µM",80.4%
same,"viability, T/C",[1],75.7%
same,"viability, T/C",[2],92.6%
same,"viability, T/C",[3],83.2%
same,"viability, T/C",[4],63.8%
same,"viability, T/C","second compound 0.949 µM, first compound 31.6 pM",83.7%
same,"viability, T/C","second compound 0.949 µM, first compound 0.0001 µM",97.6%
same,"viability, T/C",[5],86.4%
same,"viability, T/C",[6],88.9%
same,"viability, T/C",[7],95.6%
same,"viability, T/C",[8],69.7%
same,"viability, T/C","second compound 3 µM, first compound 31.6 pM",84.4%
same,"viability, T/C","second compound 3 µM, first compound 0.0001 µM",84.7%
same,"viability, T/C",[9],67.9%
same,"viability, T/C",[10],84.4%
same,"viability, T/C",[11],78.7%
same,"viability, T/C",[12],77.1%
same,"viability, T/C","second compound 9.49 µM, first compound 31.6 pM",100%
same,"viability, T/C","second compound 9.49 µM, first compound 0.0001 µM",88.2%
same,"viability, T/C",[13],110%
same,"viability, T/C",[14],83.2%
same,"viability, T/C",[15],66.2%
same,"viability, T/C",[16],82.8%
same,"viability, T/C","second compound 30 µM, first compound 31.6 pM",85.2%
same,"viability, T/C","second compound 30 µM, first compound 0.0001 µM",97.1%
same,"viability, T/C",[17],96.7%
same,"viability, T/C",[18],88.4%
same,"viability, T/C",[19],85.2%
same,"viability, T/C",[20],78%
CC(C)CC(NC(=O)CNC(=O)c1cc(Cl)ccc1Cl)B1OC(=O)CC(CC(=O)O)(C(=O)O)O1 (stereo not given) + CC(C)NCC(C(=O)N1CCN(c2ncnc3c2C(C)CC3O)CC1)c1ccc(Cl)cc1,IC50,second compound 0.3 µM,> 100 nM
same,IC50,second compound 0.949 µM,> 100 nM
same,IC50,second compound 3 µM,> 100 nM
same,IC50,second compound 9.49 µM,> 100 nM
same,IC50,second compound 30 µM,> 100 nM
same,"viability, T/C",[1],94.4%
same,"viability, T/C",[2],101%
same,"viability, T/C",[3],99%
same,"viability, T/C",[4],79%
same,"viability, T/C","second compound 0.3 µM, first compound 0.0316 µM",95.9%
same,"viability, T/C","second compound 0.3 µM, first compound 0.1 µM",59.7%
same,"viability, T/C",[5],114%
same,"viability, T/C",[6],91.7%
same,"viability, T/C",[7],79.5%
same,"viability, T/C",[8],81.3%
same,"viability, T/C","second compound 0.949 µM, first compound 0.0316 µM",88%
same,"viability, T/C","second compound 0.949 µM, first compound 0.1 µM",67.7%
same,"viability, T/C",[9],101%
same,"viability, T/C",[10],88.5%
same,"viability, T/C",[11],92.5%
same,"viability, T/C",[12],71.3%
same,"viability, T/C","second compound 3 µM, first compound 0.0316 µM",81.7%
same,"viability, T/C","second compound 3 µM, first compound 0.1 µM",82.9%
same,"viability, T/C",[13],90%
same,"viability, T/C",[14],100%
same,"viability, T/C",[15],80.4%
same,"viability, T/C",[16],77.2%
same,"viability, T/C","second compound 9.49 µM, first compound 0.0316 µM",92.5%
same,"viability, T/C","second compound 9.49 µM, first compound 0.1 µM",71.1%
same,"viability, T/C",[17],90.5%
same,"viability, T/C",[18],87.7%
same,"viability, T/C",[19],108%
same,"viability, T/C",[20],79.5%
same,"viability, T/C","second compound 30 µM, first compound 0.0316 µM",73.3%
same,"viability, T/C","second compound 30 µM, first compound 0.1 µM",78.6%
